{"source": "paper PMC5218480", "about": "(PLoS ONE, 2017)", "test_system": "MV-4-11 cells", "experiment": "Gene expression microarray analysis (Affymetrix PrimeView) and GSEA", "type": "cell-based, human", "set-up": "RFU PODN (11730768_x_at) / Fold change /veh PODN (11730768_x_at) / RFU LINC00158 (11744669_a_at) / Fold change /veh LINC00158 (11744669_a_at) / RFU DUSP10 (11751237_a_at) / Fold change /veh DUSP10 (11751237_a_at) / RFU ID3 (11757404_x_at) / Fold change /veh ID3 (11757404_x_at) / RFU PLEKHG5 (11737974_s_at) / Fold change /veh PLEKHG5 (11737974_s_at) / RFU LRRC4B (11730491_at) / Fold change /veh LRRC4B (11730491_at) / RFU GIMAP4 (11747438_a_at) / Fold change /veh GIMAP4 (11747438_a_at) / RFU KRT8 (11758183_x_at) / Fold change /veh KRT8 (11758183_x_at) / RFU CNN1 (11734310_a_at) / Fold change /veh CNN1 (11734310_a_at) / RFU VPS37D (11726825_at) / Fold change /veh VPS37D (11726825_at) / RFU C10orf10 (11716522_x_at) / Fold change /veh C10orf10 (11716522_x_at) / RFU KIR2DL2 /// KIR2DL4 /// KIR2DL5A /// KIR2DL5B /// KIR2DS1 /// KIR2DS2 /// KIR2DS3 /// KIR2DS4 /// KIR3DL3 /// KIR3DL3 /// KIR3DS1 (11738374_at) / Fold change /veh KIR2DL2 /// KIR2DL4 /// KIR2DL5A /// KIR2DL5B /// KIR2DS1 /// KIR2DS2 /// KIR2DS3 /// KIR2DS4 /// KIR3DL3 /// KIR3DL3 /// KIR3DS1 (11738374_at) / RFU C1QL1 (11718748_at) / Fold change /veh C1QL1 (11718748_at) / RFU TMPRSS4 (11747572_a_at) / Fold change /veh TMPRSS4 (11747572_a_at) / RFU HAMP (11756126_x_at) / Fold change /veh HAMP (11756126_x_at) / RFU RNFT2 (11725882_a_at) / Fold change /veh RNFT2 (11725882_a_at) / RFU NR4A2 (11747474_a_at) / Fold change /veh NR4A2 (11747474_a_at) / RFU ABCC12 (11746883_a_at) / Fold change /veh ABCC12 (11746883_a_at) / RFU TMEM136 (11760407_x_at) / Fold change /veh TMEM136 (11760407_x_at) / RFU CLDN22 /// WWC2 (11732394_at) / Fold change /veh CLDN22 /// WWC2 (11732394_at) / RFU HLA-DPB1 (11760878_x_at) / Fold change /veh HLA-DPB1 (11760878_x_at) / RFU SPINT1 (11716480_a_at) / Fold change /veh SPINT1 (11716480_a_at) / RFU GAP43 (11754022_s_at) / Fold change /veh GAP43 (11754022_s_at) / RFU A4GNT (11735810_at) / Fold change /veh A4GNT (11735810_at) / RFU PRB3 (11715151_x_at) / Fold change /veh PRB3 (11715151_x_at) / RFU TUBB4B (11761932_at) / Fold change /veh TUBB4B (11761932_at) / RFU CAPN14 (11732068_a_at) / Fold change /veh CAPN14 (11732068_a_at) / RFU TMCC2 (11721928_a_at) / Fold change /veh TMCC2 (11721928_a_at) / RFU IRGQ (11745062_a_at) / Fold change /veh IRGQ (11745062_a_at) / RFU FAM174B (11720279_a_at) / Fold change /veh FAM174B (11720279_a_at) / RFU TMPRSS4 (11748680_a_at) / Fold change /veh TMPRSS4 (11748680_a_at) / RFU FAM212B (11763350_a_at) / Fold change /veh FAM212B (11763350_a_at) / RFU PLEKHG5 (11743358_a_at) / Fold change /veh PLEKHG5 (11743358_a_at) / RFU ZSCAN30 (11745921_a_at) / Fold change /veh ZSCAN30 (11745921_a_at) / RFU CMKLR1 (11741424_a_at) / Fold change /veh CMKLR1 (11741424_a_at) / RFU LOC101060620 /// MAPK8IP1 (11723275_at) / Fold change /veh LOC101060620 /// MAPK8IP1 (11723275_at) / RFU SPTSSB (11747773_x_at) / Fold change /veh SPTSSB (11747773_x_at) / RFU PRSS12 (11739890_at) / Fold change /veh PRSS12 (11739890_at) / RFU BIN1 (11741810_x_at) / Fold change /veh BIN1 (11741810_x_at) / RFU WNT11 (11732464_a_at) / Fold change /veh WNT11 (11732464_a_at) / RFU C10orf10 (11716521_a_at) / Fold change /veh C10orf10 (11716521_a_at) / RFU C5orf56 (11738089_at) / Fold change /veh C5orf56 (11738089_at) / RFU CYB561 (11721691_x_at) / Fold change /veh CYB561 (11721691_x_at) / RFU ANKRD19P (11752326_a_at) / Fold change /veh ANKRD19P (11752326_a_at) / RFU OR2T12 /// OR2T33 /// OR2T8 (11738714_s_at) / Fold change /veh OR2T12 /// OR2T33 /// OR2T8 (11738714_s_at) / RFU VCAN (11748164_a_at) / Fold change /veh VCAN (11748164_a_at) / RFU JSRP1 (11732532_at) / Fold change /veh JSRP1 (11732532_at) / RFU KRTAP10-11 (11738290_x_at) / Fold change /veh KRTAP10-11 (11738290_x_at) / RFU MYO3A (11730013_a_at) / Fold change /veh MYO3A (11730013_a_at) / RFU EBF3 (11725865_a_at) / Fold change /veh EBF3 (11725865_a_at) / RFU CAMK2N1 (11719241_x_at) / Fold change /veh CAMK2N1 (11719241_x_at) / RFU C5orf56 (11738088_a_at) / Fold change /veh C5orf56 (11738088_a_at) / RFU OLFML3 (11715873_a_at) / Fold change /veh OLFML3 (11715873_a_at) / RFU LOC100653217 /// NTM (11731650_a_at) / Fold change /veh LOC100653217 /// NTM (11731650_a_at) / RFU MAPK11 (11762145_a_at) / Fold change /veh MAPK11 (11762145_a_at) / RFU FIZ1 (11724087_x_at) / Fold change /veh FIZ1 (11724087_x_at) / RFU OASL (11726364_x_at) / Fold change /veh OASL (11726364_x_at) / RFU SOX15 (11748057_x_at) / Fold change /veh SOX15 (11748057_x_at) / RFU CD79A (11719716_a_at) / Fold change /veh CD79A (11719716_a_at) / RFU HIST1H1D (11736915_at) / Fold change /veh HIST1H1D (11736915_at) / RFU CASKIN2 (11723855_a_at) / Fold change /veh CASKIN2 (11723855_a_at) / RFU LOC730098 (11760151_x_at) / Fold change /veh LOC730098 (11760151_x_at) / RFU OR4N2 (11742367_at) / Fold change /veh OR4N2 (11742367_at) / RFU PRRT2 (11749266_a_at) / Fold change /veh PRRT2 (11749266_a_at) / RFU SNX32 (11753110_a_at) / Fold change /veh SNX32 (11753110_a_at) / RFU CDHR5 (11726645_a_at) / Fold change /veh CDHR5 (11726645_a_at) / RFU RCAN1 (11760418_a_at) / Fold change /veh RCAN1 (11760418_a_at) / RFU FAM167A (11723789_a_at) / Fold change /veh FAM167A (11723789_a_at) / RFU FAM26E (11764081_at) / Fold change /veh FAM26E (11764081_at) / RFU ISYNA1 (11749810_s_at) / Fold change /veh ISYNA1 (11749810_s_at) / RFU ACY1 (11761880_at) / Fold change /veh ACY1 (11761880_at) / RFU 11764098_at / Fold change /veh 11764098_at / RFU SAMD14 (11745864_x_at) / Fold change /veh SAMD14 (11745864_x_at) / RFU NPB (11741838_a_at) / Fold change /veh NPB (11741838_a_at) / RFU TMPRSS6 (11731388_a_at) / Fold change /veh TMPRSS6 (11731388_a_at) / RFU KRTAP10-2 (11738614_at) / Fold change /veh KRTAP10-2 (11738614_at) / RFU ARHGAP8 /// PRR5-ARHGAP8 (11727945_x_at) / Fold change /veh ARHGAP8 /// PRR5-ARHGAP8 (11727945_x_at) / RFU KRTAP5-7 /// NADSYN1 (11734609_at) / Fold change /veh KRTAP5-7 /// NADSYN1 (11734609_at) / RFU RASL12 (11751679_a_at) / Fold change /veh RASL12 (11751679_a_at) / RFU CDKN2B (11736163_a_at) / Fold change /veh CDKN2B (11736163_a_at) / RFU PRF1 (11729649_at) / Fold change /veh PRF1 (11729649_at) / RFU, ZNF638 /// ZNF638-IT1 / Fold change vs veh, ZNF638 /// ZNF638-IT1 / RFU, PANK3 / Fold change vs veh, PANK3 / RFU, SH3YL1 / Fold change vs veh, SH3YL1 / RFU, ZEB2 / Fold change vs veh, ZEB2 / RFU, NRIP1 / Fold change vs veh, NRIP1 / RFU, PTTG1IP / Fold change vs veh, PTTG1IP / RFU, CAPN2 / Fold change vs veh, CAPN2 / RFU, MED14 / Fold change vs veh, MED14 / RFU, SNORA58 / Fold change vs veh, SNORA58 / RFU, C1orf63 / Fold change vs veh, C1orf63 / RFU, LRRFIP1 / Fold change vs veh, LRRFIP1 / RFU, NDUFAF7 / Fold change vs veh, NDUFAF7 / RFU, SLC12A2 / Fold change vs veh, SLC12A2 / RFU, IBTK / Fold change vs veh, IBTK / RFU, ESF1 / Fold change vs veh, ESF1 / Fold change vs veh, TMEM50B / RFU, TAOK1 / Fold change vs veh, TAOK1 / RFU, ACBD3 / Fold change vs veh, ACBD3 / RFU, TMA16 / Fold change vs veh, TMA16 / RFU, RWDD3 / Fold change vs veh, RWDD3 / RFU, BCAT1 / Fold change vs veh, BCAT1 / RFU, EDEM3 / Fold change vs veh, EDEM3 / RFU, TMEM33 / Fold change vs veh, TMEM33 / RFU, WDR75 / Fold change vs veh, WDR75 / RFU, AHCTF1 / Fold change vs veh, AHCTF1 / RFU, TFRC / Fold change vs veh, TFRC / RFU, ZDHHC17 / Fold change vs veh, ZDHHC17 / RFU, NOM1 / Fold change vs veh, NOM1 / RFU, ARL8B / Fold change vs veh, ARL8B / RFU, ZBTB11 / Fold change vs veh, ZBTB11 / RFU, TAMM41 / Fold change vs veh, TAMM41 / RFU, KIAA1704 /// LOC100996395 / Fold change vs veh, KIAA1704 /// LOC100996395 / RFU, ING1 / Fold change vs veh, ING1 / RFU, TRMT61B / Fold change vs veh, TRMT61B / RFU, FUBP3 / Fold change vs veh, FUBP3 / RFU, TP53 / Fold change vs veh, TP53 / RFU, TNKS2 / Fold change vs veh, TNKS2 / RFU, ZFP14 / Fold change vs veh, ZFP14 / RFU, ACTR2 / Fold change vs veh, ACTR2 / RFU, PPP3R1 / Fold change vs veh, PPP3R1 / RFU, PIK3R1 / Fold change vs veh, PIK3R1 / RFU, HNRNPA1 / Fold change vs veh, HNRNPA1 / RFU, RNF170 / Fold change vs veh, RNF170 / RFU, ZNF28 / Fold change vs veh, ZNF28 / RFU, RNGTT / Fold change vs veh, RNGTT / RFU, OGT / Fold change vs veh, OGT / RFU, BRD1 / Fold change vs veh, BRD1 / RFU, MARS / Fold change vs veh, MARS / RFU, ZNF655 / Fold change vs veh, ZNF655 / RFU, FAHD1 / Fold change vs veh, FAHD1 / RFU, BDP1 / Fold change vs veh, BDP1 / RFU, LRRCC1 / Fold change vs veh, LRRCC1 / RFU, ARID1A / Fold change vs veh, ARID1A / RFU, ZNF146 / Fold change vs veh, ZNF146 / RFU, ZNF330 / Fold change vs veh, ZNF330 / RFU, GPN3 / Fold change vs veh, GPN3 / RFU, C9orf123 / Fold change vs veh, C9orf123 / RFU, N4BP2L2 / Fold change vs veh, N4BP2L2 / RFU, ARFIP1 / Fold change vs veh, ARFIP1 / RFU, FAM179B / Fold change vs veh, FAM179B / RFU, BCL10 / Fold change vs veh, BCL10 / RFU, UHRF1BP1L / Fold change vs veh, UHRF1BP1L / RFU, BET1 / Fold change vs veh, BET1 / RFU, CNOT2 / Fold change vs veh, CNOT2 / RFU, ZNF268 / Fold change vs veh, ZNF268 / Fold change vs veh, ZNF507 / RFU, DGCR2 / Fold change vs veh, DGCR2 / RFU, WDSUB1 / Fold change vs veh, WDSUB1 / Fold change vs veh, HSP90B1 /// MIR3652 / RFU, ADSS / Fold change vs veh, ADSS / RFU, GK / Fold change vs veh, GK / RFU, ZNF148 / Fold change vs veh, ZNF148 / RFU, TAF9 / Fold change vs veh, TAF9 / RFU, SLC1A5 / Fold change vs veh, SLC1A5 / RFU, SLMO2 / Fold change vs veh, SLMO2 / RFU, ABCC4 / Fold change vs veh, ABCC4 / RFU, LOC101060439 /// RAP1B / Fold change vs veh, LOC101060439 /// RAP1B / RFU, RFX7 / Fold change vs veh, RFX7 / RFU, GTPBP10 / Fold change vs veh, GTPBP10 / RFU, CNEP1R1 / Fold change vs veh, CNEP1R1 / RFU, BIVM-ERCC5 /// ERCC5 / Fold change vs veh, BIVM-ERCC5 /// ERCC5 / RFU, ILF3 / Fold change vs veh, ILF3 / RFU 11762660_at / Fold change /veh 11762660_at / RFU VCAN (11757783_s_at) / Fold change /veh VCAN (11757783_s_at) / RFU DDX43 (11728927_at) / Fold change /veh DDX43 (11728927_at) / RFU KRT8 (11758188_x_at) / Fold change /veh KRT8 (11758188_x_at) / RFU NKD1 (11759106_at) / Fold change /veh NKD1 (11759106_at) / RFU SRD5A1 (11742802_a_at) / Fold change /veh SRD5A1 (11742802_a_at) / RFU TPSAB1 /// TPSB2 (11721975_s_at) / Fold change /veh TPSAB1 /// TPSB2 (11721975_s_at) / RFU GSTM3 (11746129_a_at) / Fold change /veh GSTM3 (11746129_a_at) / RFU IL23R (11737362_x_at) / Fold change /veh IL23R (11737362_x_at) / RFU TMEM51 (11727254_a_at) / Fold change /veh TMEM51 (11727254_a_at) / RFU PIWIL2 (11732686_x_at) / Fold change /veh PIWIL2 (11732686_x_at) / RFU ORM1 (11744905_x_at) / Fold change /veh ORM1 (11744905_x_at) / RFU CCDC152 (11743942_at) / Fold change /veh CCDC152 (11743942_at) / RFU ECM1 (11717891_a_at) / Fold change /veh ECM1 (11717891_a_at) / RFU IL23R (11748794_a_at) / Fold change /veh IL23R (11748794_a_at) / RFU TNFAIP8L3 (11732012_x_at) / Fold change /veh TNFAIP8L3 (11732012_x_at) / RFU MBOAT4 (11741988_at) / Fold change /veh MBOAT4 (11741988_at) / RFU 11764193_at / Fold change /veh 11764193_at / RFU TMEM53 (11763286_at) / Fold change /veh TMEM53 (11763286_at) / RFU MAGEB2 (11727129_at) / Fold change /veh MAGEB2 (11727129_at) / RFU TMEM200A (11744735_a_at) / Fold change /veh TMEM200A (11744735_a_at) / RFU CCDC152 (11751479_a_at) / Fold change /veh CCDC152 (11751479_a_at) / RFU FAM211A (11726209_a_at) / Fold change /veh FAM211A (11726209_a_at) / RFU RGS16 (11746705_a_at) / Fold change /veh RGS16 (11746705_a_at) / RFU VCAN (11755009_s_at) / Fold change /veh VCAN (11755009_s_at) / RFU RHOB (11743442_s_at) / Fold change /veh RHOB (11743442_s_at) / RFU RGS16 (11720943_a_at) / Fold change /veh RGS16 (11720943_a_at) / RFU RGS16 (11720944_at) / Fold change /veh RGS16 (11720944_at) / RFU, VPS4B / Fold change vs veh, VPS4B / RFU, CREB1 / Fold change vs veh, CREB1 / RFU, DNAJC13 / Fold change vs veh, DNAJC13 / RFU, GNAQ / Fold change vs veh, GNAQ / RFU, CDK5R1 / Fold change vs veh, CDK5R1 / RFU, ZRANB3 / Fold change vs veh, ZRANB3 / RFU, CUL4A / Fold change vs veh, CUL4A / RFU, CCNY / Fold change vs veh, CCNY / RFU, UFL1 / Fold change vs veh, UFL1 / RFU, COG3 / Fold change vs veh, COG3 / RFU, DIAPH2 / Fold change vs veh, DIAPH2 / RFU, SKA2 / Fold change vs veh, SKA2 / RFU, AFF3 / Fold change vs veh, AFF3 / RFU, LMF1 / Fold change vs veh, LMF1 / RFU, IPO11 / Fold change vs veh, IPO11 / RFU, DFFB / Fold change vs veh, DFFB / RFU, FOXP1 / Fold change vs veh, FOXP1 / RFU, CARD8 / Fold change vs veh, CARD8 / RFU, STRN3 / Fold change vs veh, STRN3 / RFU, ADK / Fold change vs veh, ADK / RFU, RASSF2 / Fold change vs veh, RASSF2 / RFU, WIPF1 / Fold change vs veh, WIPF1 / RFU, LARP1B / Fold change vs veh, LARP1B / RFU, RASA1 / Fold change vs veh, RASA1 / RFU, RB1 / Fold change vs veh, RB1 / RFU, PPFIA1 / Fold change vs veh, PPFIA1 / RFU, MAT2A / Fold change vs veh, MAT2A / RFU, CCT5 / Fold change vs veh, CCT5 / RFU, WDR92 / Fold change vs veh, WDR92 / RFU, CUX1 / Fold change vs veh, CUX1 / RFU, TTC7A / Fold change vs veh, TTC7A / RFU, TMEM135 / Fold change vs veh, TMEM135 / RFU, DEPTOR / Fold change vs veh, DEPTOR / RFU, CPM / Fold change vs veh, CPM / RFU, DNAJB6 / Fold change vs veh, DNAJB6 / RFU, CACNA2D3 / Fold change vs veh, CACNA2D3 / RFU, DTX4 / Fold change vs veh, DTX4 / RFU, TFCP2 / Fold change vs veh, TFCP2 / RFU, GMCL1 /// GMCL1P1 / Fold change vs veh, GMCL1 /// GMCL1P1 / RFU, AEBP2 / Fold change vs veh, AEBP2 / RFU, SNHG1 /// SNORD22 /// SNORD25 /// SNORD26 /// SNORD27 /// SNORD28 /// SNORD29 /// SNORD31 / Fold change vs veh, SNHG1 /// SNORD22 /// SNORD25 /// SNORD26 /// SNORD27 /// SNORD28 /// SNORD29 /// SNORD31 / Fold change (Aza/veh), C12orf56 (ProbeSet 11735607_a_at) / Fold change (ACY-1035/veh), C12orf56 (ProbeSet 11735607_a_at) / Fold change (Aza/veh), FGFR1OP (ProbeSet 11751329_s_at) / Fold change (ACY-1035/veh), FGFR1OP (ProbeSet 11751329_s_at) / Fold change (Aza/veh), VPS36 (ProbeSet 11739960_a_at) / Fold change (ACY-1035/veh), VPS36 (ProbeSet 11739960_a_at) / RFU SYPL1 (11715823_x_at) / Fold change /veh SYPL1 (11715823_x_at) / RFU IGFBP7 (11715501_s_at) / Fold change /veh IGFBP7 (11715501_s_at) / RFU REEP3 (11722064_at) / Fold change /veh REEP3 (11722064_at) / RFU IGLL1 (11728026_x_at) / Fold change /veh IGLL1 (11728026_x_at): dose or concentration left out as unconfirmed", "details": "MV-4-11 cells, 48 hours"}
{"molecule": "Nc1ncn([C@@H]2O[C@H](CO)[C@@H](O)[C@H]2O)c(=O)n1", "note": "[azacitidine]", "values": [{"measurement": "Fold change /veh C5orf56 (11738089_at)", "value": 1.15}]}
